The target in data set [1] is T1, human mGluR4 transiently over-expressed in HEK-293 cells (Homo sapiens, UniProt Q14833).
T1 construct: expressed in transfected cells; host or cells: HEK-293 cells, transient co-transfection by electroporation
Kind of data set: Human mGluR4 positive allosteric modulator evaluation using Ca++ functional assay. The format is cell-based. The conditions noted are these: for EC50: HEK-293 cells co-transfected with hmGluR4 and chimeric G protein, EC10 glutamate, intracellular calcium (Fluo4AM), read-out: mean EC50 of agonist/positive allosteric modulator activity on mGluR4. How it is done:
Human mGluR4 Positive Allosteric Modulator Evaluation Using Ca^++ Functional Assay
Compounds of the present invention were tested successively for their agonist and positive allosteric modulator activities on human mGluR4 transiently over-expressed in HEK-293 cells. They exert agonist activity if, by themselves in absence of the endogenous glutamate, they are able to activate mGluR4; and they exert positive allosteric modulator activity if they increase the action of the endogenous glutamate.
Cell Culture and Transfection
HEK-293 cells were maintained in Modified Eagle's Medium supplemented with 10% Foetal Calf Serum, 1% Penicillin/Streptomycin and 1% non essential amino acids at 37° C./5% CO2.
Cells were co-transfected by electroporation with two DNA plasmids encoding hmGluR4 and a chimeric G protein allowing redirection of the activation signal to intracellular calcium pathway. Cells were plated after transfection onto polyornithine coated, clear bottom, black-walled, 96-well plates and cultured for 24 h.
Calcium Assay EC50 Determination
Receptor activity was detected by changes in intracellular calcium measured using the fluorescent Ca^2+ sensitive dye, Fluo4AM (Molecular Probes).
The day of the assay, medium was aspirated and replaced during 3 hours by medium without serum supplemented with 1% Glutamax, 1% Penicillin/Streptomycin and 1% non essential amino acids. Then, cells were washed with freshly prepared buffer B (HBSS 1×(PAA), Hepes 20 mM, MgSO4-7H2O 1 mM, Na2CO3 3.3 mM, CaCl2-2H2O 1.3 mM, 0.5% BSA, Probenecid 2.5 mM) and loaded at 37° C. in 5% CO2 for 1.5 hours with buffer B containing 1 μM Fluo4AM 0.1 mg/mL Pluronic Acid, 7 μg/mL Glutamate Pyruvate Transaminase and 2 mM sodium pyruvate. Afterwards cells were washed twice with buffer B and 50 μL of this buffer were added to each well. Addition of compounds and intracellular Ca^2+ measurements (excitation 485 nm, emission 525 nm) were performed by the fluorescence microplate reader FlexStation (Molecular Devices).
Agonist and positive allosteric modulator activities of compounds were consecutively evaluated on the same cells plate. Agonist activity was first tested during 60 s with the addition of compound alone on the cells. Then, the cells were stimulated by an EC10 glutamate concentration and fluorescence recorded for additional 60 s. EC10 glutamate concentration is the concentration giving 10% of the maximal glutamate response. Agonist and/or positive allosteric modulator activity(ies) were evaluated in comparison to basal signal evoked by EC10 glutamate alone.
For EC50 determination, a dose-response test was performed using 6 to 9 concentrations of each compound of the invention. Dose-response curves were fitted using the sigmoidal dose-response (variable slope) analysis in GraphPad Prism program (Graph Pad Inc) and EC50 of agonist/positive allosteric modulator activity was calculated. Dose-response experiments were all performed in duplicate, two times independently.
Background: Calcium flux is commonly read through the fluorescence of an indicator in the cells.

Bounds are passed on as bounds.

T1 sequence (Q14833 33-912): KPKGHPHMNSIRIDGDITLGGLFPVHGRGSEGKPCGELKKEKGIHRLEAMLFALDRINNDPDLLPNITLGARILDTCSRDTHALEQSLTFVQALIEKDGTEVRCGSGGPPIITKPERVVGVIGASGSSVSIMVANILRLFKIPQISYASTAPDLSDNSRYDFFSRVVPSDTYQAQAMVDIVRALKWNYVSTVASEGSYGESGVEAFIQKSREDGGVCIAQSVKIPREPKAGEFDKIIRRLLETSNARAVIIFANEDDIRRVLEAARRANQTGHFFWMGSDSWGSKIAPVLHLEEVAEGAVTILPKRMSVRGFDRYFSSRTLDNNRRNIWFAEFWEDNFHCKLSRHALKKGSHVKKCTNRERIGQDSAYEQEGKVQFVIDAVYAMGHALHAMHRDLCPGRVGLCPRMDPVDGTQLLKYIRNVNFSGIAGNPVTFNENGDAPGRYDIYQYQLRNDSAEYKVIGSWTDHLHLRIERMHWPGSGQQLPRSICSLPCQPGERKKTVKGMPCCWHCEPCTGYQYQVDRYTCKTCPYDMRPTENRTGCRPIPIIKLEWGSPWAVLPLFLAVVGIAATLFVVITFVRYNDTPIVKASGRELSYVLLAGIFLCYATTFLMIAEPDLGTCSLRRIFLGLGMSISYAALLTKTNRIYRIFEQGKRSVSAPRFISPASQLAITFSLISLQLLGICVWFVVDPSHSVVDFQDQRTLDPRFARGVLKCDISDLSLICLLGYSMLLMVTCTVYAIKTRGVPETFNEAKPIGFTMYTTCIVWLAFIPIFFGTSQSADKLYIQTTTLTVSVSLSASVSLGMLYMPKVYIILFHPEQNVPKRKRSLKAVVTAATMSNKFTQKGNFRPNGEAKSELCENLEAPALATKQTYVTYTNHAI

Turning to `ON=c1cc(-c2cc3ccccc3cn2)oc2cc(C#Cc3ccncc3)ccc12` (mixture of isomers) [Example 26, 2-isoquinolin-3-yl-7-(pyridin-4-yl)ethynyl-chromen-4-one oxime], the melting point (usually the temperature, or range, at which the solid turns liquid) was 265 to 270 °C. Besides, the EC50 in data set [1] is under 5000 nM.

On to `C=CC#Cc1ccc2c(=NO)cc(-c3cc4ccccc4cn3)oc2c1` (mixture of isomers) [Example 55, 7-but-3-en-1-ynyl-2-Isoquinolin-3-yl-chromen-4-one oxime], for which the melting point was > 210 °C (dec.). For the same compound, in data set [1], the EC50 is under 5000 nM.

In turn, `Cl.ON=c1cc(-c2cc3sccc3cn2)oc2ccc(OCCCc3ccncc3)cc12` [Example 134, 6-(3-Pyridin-4-yl-propoxy)-2-thieno[3,2-c]pyridin-6-yl-chromen-4-one oxime, hydrochloride] gave a melting point of 236 to 238 °C. Moreover, the EC50 in data set [1] is under 1000 nM.

In turn, `ON=c1cc(-c2cc3cccn3cn2)oc2ccc(OCCc3cccc(F)c3)cc12` [Example 138, 6-[2-(3-Fluoro-phenyl)-ethoxy]-2-pyrrolo[1,2-c]pyrimidin-3-yl-chromen-4-one, oxime] returned a melting point of 205 to 207 °C. Also, in data set [1], the EC50 was under 1000 nM.

For `Cl.ON=c1cc(-c2cc3sccc3cn2)oc2ccc(OCCN3CCCC(F)(F)C3)cc12` [Example 131, 6-[2-(3,3-Difluoro-piperidin-1-yl)-ethoxy]-2-thieno[3,2-c]pyridin-6-yl-chromen-4-one oxime, hydrochloride], the melting point is > 250 °C (dec.). In addition, in data set [1], the EC50 is under 1000 nM.

As to `Cl.Cl.ON=c1cc(-c2cc3cccn3cn2)oc2ccc(OCCN3CCC(N4CCCC4)CC3)cc12` [Example 118, 6-[2-(4-pyrrolidin-1-yl-piperidin-1-yl)-ethoxy]-2-pyrrolo[1,2-c]pyrimidin-3-yl-chromen-4-one oxime, dihydrochloride], the melting point was > 210 °C (dec.). Further, the EC50 in data set [1] is under 1000 nM.

`ON=c1cc(-c2cc3sccc3cn2)oc2ccccc12` [Example 70, 2-Thieno[3,2-c]pyridin-6-yl-chromen-4-one oxime] showed a melting point of 272 to 275 °C. Besides, the EC50 in data set [1] was under 1000 nM.

Compound `ON=c1cc(-c2cc3ccsc3cn2)oc2ccccc12` (mixture of isomers) [Example 69, 2-Thieno[2,3-c]pyridin-5-yl-chromen-4-one oxime] yielded a melting point of 243 to 245 °C. For the same compound, the EC50 in data set [1] is under 1000 nM.

In turn, `COCCOc1ccc2c(=NO)cc(-c3cc4ccccc4cn3)oc2c1` (mixture of isomers) [Example 57, 2-isoquinolin-3-yl-7-(2-methoxy-ethoxy)-chromes-4-one oxime] gave a melting point of 223 to 225 °C. Also, the EC50 in data set [1] was under 5000 nM.

As for `ON=c1cc(-c2cc3ccccc3cn2)oc2cc(Br)ccc12` (mixture of isomers) [Example 2, 7-bromo-2-isoquinolin-3-yl-chromen-4-one oxime], the melting point lay within 279 to 283 °C. Moreover, the EC50 in data set [1] was under 5000 nM.

`ON=c1cc(-c2cc3ccccc3cn2)oc2ccc(O)cc12` (mixture of isomers) [Example 41, 6-hydroxy-2-isoquinolin-3-yl-chromen-4-one oxime] displayed a melting point of 255 to 260 °C. In data set [1], the EC50 is under 5000 nM.

As to `Cl.ON=c1cc(-c2cc3sccc3cn2)oc2ccc(OCCN3CCOCC3)cc12` [Example 127, 6-(2-Morpholin-4-yl-ethoxy)-2-thieno[3,2-c]pyridin-6-yl-chromen-4-one oxime, hydrochloride], the melting point is > 230 °C (dec.). For the same compound, the EC50 in data set [1] is under 1000 nM.

The compound `ON=c1cc(-c2cc3cccn3cn2)oc2ccc(OCCOc3ccncc3)cc12` [Example 147, 6-[2-(Pyridin-4-yloxy)-ethoxy]-2-pyrrolo[1,2-c]pyrimidin-3-yl-chromen-4-one oxime] gave a melting point of 198 to 200 °C. For the same compound, the EC50 in data set [1] is under 1000 nM.

The compound `OCCC#Cc1ccc2c(=NO)cc(-c3cc4ccccc4cn3)oc2c1` (mixture of isomers) [Example 52, 7-(4-Hydroxy-but-1-ynyl)-2-isoquinolin-3-yl-chromen-4-one oxime] came in with a melting point of 238 to 240 °C. For the same compound, in data set [1], the EC50 was under 5000 nM.

The compound `ON=c1cc(-c2cc3cccn3cn2)oc2ccc(OCCc3ccc(C(F)(F)F)cc3)cc12` [Example 137, 2-Pyrrolo[1,2-c]pyrimidin-3-yl-6-[2-(4-trifluoromethyl-phenyl)-ethoxy]-chromen-4-one, oxime] yielded a melting point of 214 to 215 °C. In addition, the EC50 in data set [1] is under 1000 nM.

`ON=c1cc(-c2cc3ccccc3cn2)oc2cc(/C=C/c3ccccc3)ccc12` (mixture of isomers) [Example 21, 2-isoquinolin-3-yl-7-((E)-styryl)-chromen-4-one oxime] yielded a melting point of 273 to 276 °C. For the same compound, the EC50 in data set [1] was under 5000 nM.

For the compound `Cl.ON=c1cc(-c2cc3cccn3cn2)oc2ccc(CNCc3ccc(F)cc3)cc12` [Example 144, 6-[(4-Fluoro-benzylamino)-methyl]-2-pyrrolo[1,2-c]pyrimidin-3-yl-chromen-4-one oxime hydrochloride], the melting point was > 210 °C (dec.). Also, the EC50 in data set [1] was under 5000 nM.

With `Cl.ON=c1cc(-c2cc3ccsc3cn2)oc2ccc(OCCN3CCOCC3)cc12` [Example 158, 6-(2-Morpholin-4-yl-ethoxy)-2-thieno[2,3-c]pyridin-5-yl-chromen-4-one oxime, hydrochloride], the melting point lay within 258 to 260 °C. For the same compound, in data set [1], the EC50 is under 1000 nM.

For `CC1CN(CCOc2ccc3oc(-c4cc5sccc5cn4)cc(=NO)c3c2)CC(C)O1.Cl` (stereo not drawn) [Example 132, 6-[2-(2,6-Dimethyl-morpholin-4-yl)-ethoxy]-2-thieno[3,2-c]pyridin-6-yl-chromen-4-one oxime, hydrochloride], the melting point fell in the range of 222 to 225 °C. Moreover, the EC50 in data set [1] is under 1000 nM.

In turn, `C=Cc1ccc2oc(-c3cc4ccccc4cn3)cc(=NO)c2c1` [Example 36, 2-isoquinolin-3-yl-6-(vinyl)-chromen-4-one oxime] gave a melting point of 198 to 200 °C. Moreover, the EC50 in data set [1] is under 5000 nM.

As for `N#Cc1ccc2c(=NO)cc(-c3cc4ccccc4cn3)oc2c1` [Example 58, 7-cyano-2-isoquinolin-3-yl-chromen-4-one oxime], the melting point lay in the range of 279 to 281 °C. Further, the EC50 in data set [1] is under 5000 nM.

`ON=c1cc(-c2cc3ccccc3cn2)oc2ccc(OC(F)(F)F)cc12` (mixture of isomers) [Example 10, 2-isoquinolin-3-yl-6-trifluoromethoxy-chromen-4-one oxime] showed a melting point of 250 to 254 °C. In data set [1], the EC50 was under 5000 nM.

In turn, `CN(C)CCOc1ccc2oc(-c3cc4ccccc4cn3)cc(=NO)c2c1` (mixture of isomers) [Example 44, 6-(2-dimethylamino-ethoxy)-2-isoquinolin-3-yl-chromen-4-one oxime] registered a melting point of 203 to 205 °C. The EC50 in data set [1] was under 5000 nM.

As for `ON=c1cc(-c2cc3ccccc3cn2)oc2ccc(Br)cc12` (mixture of isomers) [Example 4, 6-bromo-2-isoquinolin-3-yl-chromen-4-one oxime], the melting point lay in the range of 266 to 269 °C. Further, the EC50 in data set [1] is under 1000 nM.

In turn, `ON=c1cc(-c2cc3ccccc3cn2)oc2ccc(F)cc12` (mixture of isomers) [Example 6, 6-fluoro-2-isoquinolin-3-yl-chromen-4-one oxime] returned a melting point of 278 to 280 °C. For the same compound, the EC50 in data set [1] is under 5000 nM.

For the compound `ON=c1cc(-c2ccc3ccccc3c2)oc2ccccc12` [Example 74, 2-Naphthalen-2-yl-chromen-4-one oxime], the melting point lay within 224 to 226 °C. Further, the “PAM activity on mGluR4” value in data set [1] (up to 100 μM) was “no PAM activity”.

Turning to `CN(C)C1CCN(CCOc2ccc3oc(-c4cc5cccn5cn4)cc(=NO)c3c2)CC1.Cl.Cl` [Example 99, 6-[2-(4-dimethylamino-piperidin-1-yl)-ethoxy]-2-pyrrolo[1,2-c]pyrimidin-3-yl-chromen-4-one oxime, dihydrochloride], the melting point was > 255 °C (dec.). In data set [1], the EC50 is under 1000 nM.

For the origin of these results see patent publication US8962627B2, “Oxime derivatives and their use as allosteric modulators of metabotropic glutamate receptors” (Prestwick Chemical, Inc., priority 2009, dated 2015).
